Starred links: 1 amine or outer side, 2 acyl side, 3 side chain; linkers in the order of their positions; H or OH if unused. Residues, ends and D or L forms follow the SMILES beside them. *: point of attachment. pNA = O=[N+]([O-])c1ccc(N*)cc1; Suc = O=C(CCC(=O)[*:2])[*:1]
What was measured:
Par14 (Par17Δ1-25) = target: T1, Par14 (Par17Δ1-25) (Homo sapiens, UniProt Q9Y237); experiment: Protease-coupled isomerase assay (PPIase assay) with Par14; type: biochemical; conditions: α-chymotrypsin 35 μM, PBS pH 6.8, 10°C, substrate 75 μM, PPIase 2 μM, absorbance 390 nm; mean ± SD
T1 construct: Comparison of spectra of full‐length parvulin proteins and PPIase domain; GST-His6 (PreScission site) (N, cleaved yes); made in house; host or cells: E. coli BL21 (DE3) T1r
T1 sequence (Q9Y237 whole entry, stated change not applied, the tested form may be a part): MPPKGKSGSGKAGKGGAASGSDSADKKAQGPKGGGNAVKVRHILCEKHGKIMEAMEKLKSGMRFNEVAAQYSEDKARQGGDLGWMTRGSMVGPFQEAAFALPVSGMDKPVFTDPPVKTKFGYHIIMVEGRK
Protocol: (§1) To determine the catalytic efficiency and substrate specificity of Par14 and Par17, we performed a protease‐coupled assay. In this assay, the trans form of a para‐nitroaniline (pNA) tagged model substrate is cleaved by chymotrypsin, and the resulting change in absorption at 390 nm due to free pNA is measured. When the model substrate is added to the protease‐containing buffer, all trans‐Xaa‐Pro isomers are immediately cleaved by chymotrypsin. Therefore, the extent of the first signal burst observed in the absorption spectrum correlates with the amount of trans isomers of the model substrate formed during the experimental dead time. The remaining cis‐Xaa substrates now start to isomerize by thermal (in the absence of PPIase) or catalytic reaction (in the presence of PPIase). The newly formed trans‐Xaa substrates are immediately cleaved, and isomerization can thus be monitored over time (Figure 2). Eighteen different substrate peptides with varying amino acids at the Xaa position (Suc‐Ala‐Xaa‐Pro‐Phe‐pNa) were measured to determine the isomerase activity and substrate selectivity of Par14 (Par17Δ1–25), Par17, and the catalytic domain (Par17Δ1–60) (Table S1). The catalytic efficiency is obtained from the observed isomerization curves by calculating the difference between the rate constant in the presence of enzyme and the rate constant obtained from thermal isomerization.
(§2) We determined the isomerase activity using the PPIase assay described by. The lyophilized peptides were dissolved in an adequate volume of 0.5 mM‐LiCl/TFE buffer to obtain a 15 mM stock solution. To achieve a stable cis/trans ratio the mixture was incubated overnight at 4°C. The next day a stock solution of 350 μM α‐chymotrypsin in PBS was incubated on ice for at least 20 min. For measurements without PPIase PBS buffer (pH 6.8) was mixed with α‐chymotrypsin to a final concentration of 35 μM in 1 mL. A baseline was recorded for 5 min (Cary 100Bio UV/Vis spectrophotometer, Varian/Agilent, Santa Clara, US, λ: 390 nm, bandwidth: 1.0 nm, average time between measurements: 0.5 s, temperature: 10°C). After 5 min the substrate peptide was added to a final concentration of 75 μM in 1 mL [59]. The solution was mixed by inverting the cuvette three times and the reaction was recorded for 15 min. Measurements in the presence of PPIase were performed in the same way, except that before the baseline measurement, the appropriate isomerase was added in a final concentration of 2 μM in 1 mL in addition to PBS and α‐chymotrypsin.
(§3) For the data analysis, a mean value of the baseline was subtracted (average of the first 200 data points). The measured values were normalized according to the respective maximum of the measurement. To determine the rate constant, the program graph pad was used, and non‐linear curve fitting was applied for each measurement (exponential, one‐phase association). (1) Y=Y0+Plateau−Y0∙1−e^−K∙x
(§4) where x is the time (min), Y is the absorbance, Y 0 is the absorbance when x = 0, Plateau is the Y value at infinite times, K is the rate constant (min^−1).
(§5) The K cat/K M value was calculated according to Equation (2): (2) kcat/KM=kobs−ktherm/PPIase where k cat/K M is the catalytic efficiency (M^−1 s^−1), k obs, rate constant of the observed reaction (s^−1), k therm is the rate constant of the thermic reaction (s^−1), and [PPIase] is the concentration of PPIase used in the assay (M).
(§6) The obtained data are fitted to Equation (2) using a pseudo first‐order assumption. This is the case, if k obs values behave linearly with rising PPIase concentrations.

Par17 [1] = target: T2, Par17 (Homo sapiens, UniProt Q9Y237); experiment: Protease-coupled isomerase assay (PPIase assay) with Par17; type: biochemical; conditions: for k = kobserved - kthermic, Par17: α-chymotrypsin 35 μM, PBS pH 6.8, 10°C, substrate 75 μM, PPIase 2 μM, absorbance 390 nm, mean ± SD
T2 construct: full‐length Par17 and the N‐terminus of Par17; GST-His6 (PreScission site) (N, cleaved yes); Gly-Pro remnant of the PreScission site (Gly stands at position 1 in place of Met1); made in house; host or cells: E. coli BL21 (DE3) T1r
T2 sequence (Q9Y237 1-156 isoform Q9Y237-2): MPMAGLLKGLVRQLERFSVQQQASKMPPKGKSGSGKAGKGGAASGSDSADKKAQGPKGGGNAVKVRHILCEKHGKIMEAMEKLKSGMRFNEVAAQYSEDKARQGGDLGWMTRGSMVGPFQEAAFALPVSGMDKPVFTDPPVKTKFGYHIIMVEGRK
Protocol: as §1, §2, §3, §4, §5, §6

[2] = target: T3, PPIase domain (Par17Δ1-60) (Homo sapiens, UniProt Q9Y237); experiment: Protease-coupled isomerase assay (PPIase assay) with the catalytic domain; type: biochemical; conditions: α-chymotrypsin 35 μM, PBS pH 6.8, 10°C, substrate 75 μM, PPIase 2 μM, absorbance 390 nm; mean ± SD
T3 construct: GST-His6 (PreScission site) (N, cleaved yes); made in house; host or cells: E. coli BL21 (DE3) T1r
T3 sequence (Q9Y237 36-131, stated change not applied): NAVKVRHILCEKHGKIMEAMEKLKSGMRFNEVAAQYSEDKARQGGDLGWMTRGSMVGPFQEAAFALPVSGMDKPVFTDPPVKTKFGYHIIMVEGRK
Protocol: as §1, §2, §3, §4, §5, §6

Par17 [3] = target: T2, Par17; experiment: NMR titration of substrate peptides to 15N-labeled full-length Par17; type: binding; conditions: 300 μM Par17, KPi pH 6.7, 20°C
Protocol: The amide signals were assigned and combined chemical shift changes between the signals of free and substrate‐bound isomers were calculated.
(§7) For NMR measurements, purified and concentrated proteins in salt‐free buffers were mixed with 10% D2O and 1 μL DSS standard. Spectra were measured on an ultra shield 700‐NMR (Bruker, Billerica, US) with a triple resonance cryoprobe (700 MHz). For recording and processing of data, the software Topspin 3.5 was used. Analysis of spectra was carried out using Cara analysis software 2.3.1 (Rochus L.J. Keller) and/or CcpNmr Analysis 2.3.1 (Department of Molecular and Cell Biology, University of Leicester, UK).
Titration of substrate peptides to ^ 15 N‐labeled full‐length Par17 and the N‐terminus of Par17: The following substrate peptides were diluted in salt‐free 50 mM KPi buffer pH 6.7 to a concentration of 15 mM (Suc: Succinyl, pNA: para‐Nitroanilin):
They were added stepwise to 200 μL of the labeled parvulins (300 μM in 50 mM KPi buffer pH 6.7). Spectra were recorded with the pulse program Best‐TROSY at 20°C. Combined chemical shifts were calculated as described. Microscopic dissociation constant K D was fitted with the following equation (assuming a 1:1 binding model): (4) ∆δ=∆δmax·P+x+KD−P+x+KD^2−4·x·P/2·P
where ∆δmax is the amplitude, P is the protein concentration, X is the concentration of the peptide.
Differences in chemical shift changes could be measured up to 0.001 ppm (error in peak picking). Changes were interpreted as significant if Δ > 0.004 ppm and when appearing consecutively in a linear sequence element.
The microscopic K D describes the binding affinity of the ligand to a single side of an amino acid.

Par17Δ61–156 = experiment: NMR titration of substrate peptides to 15N-labeled N-terminus of Par17; type: binding, human; conditions: 15N-BEST-TROSY-HSQC, 50 mM KPi pH 6.7, 20°C; protein 0.3 mM, substrate 3 mM
Description: To elucidate the physical nature of the chemical shift changes in Par17 upon the addition of selected substrate peptides, we investigated whether the isolated N‐terminus of Par17 (Par17Δ61–156) is also capable of binding various substrates on its own. […] This indicates the existence of an independent binding epitope located within the N‐terminus.
In the next step, we studied if this binding epitope is selectively interacting with peptides carrying Xaa‐Pro motifs. We already knew from former studies that model peptides carrying alanine instead of proline in the Xaa position are capable of binding to the hydrophobic catalytic center without being catalyzed.
as §7, with “UK). […]” for “UK).”
They were added stepwise to 200 μL of the labeled parvulins (300 μM in 50 mM KPi buffer pH 6.7). Spectra were recorded with the pulse program Best‐TROSY at 20°C. Combined chemical shifts were calculated as described. […]

C[C@H](NC(=O)CCC(=O)O)C(=O)N[C@@H](CCCCN)C(=O)N1CCC[C@H]1C(=O)N[C@@H](Cc1ccccc1)C(=O)Nc1ccc([N+](=O)[O-])cc1 [Lys, Suc‐Ala‐Lys‐Pro‐Phe‐pNa]
k = kobserved - kthermic, Par14 (Par17Δ1-25) (Par14 (Par17Δ1-25)): 0.412 ± 0.014 min⁻¹ | k cat/K M of Par17, times higher than for Leu‐Pro, Gln‐Pro or His‐Pro peptides (Par17 [1]; ratio of k cat/K M values): approximately 10 times | k = kobserved - kthermic, Par17 (Par17 [1]): 0.33 ± 0.012 min⁻¹ | k = kobserved - kthermic, PPIase domain (Par17Δ1-60) [2]: 0.442 ± 0.006 min⁻¹ | Combined chemical shift perturbation of full length Par17, 115M (Par17 [3]; peptide 0,2 mM): 0,00414271 ppm | Combined chemical shift perturbation of full length Par17, 119F (Par17 [3]; peptide 0,2 mM): 0,00604921 ppm | Combined chemical shift perturbation of full length Par17, 115M (Par17 [3]; peptide 1 mM): 0,01818939 ppm | Combined chemical shift perturbation of full length Par17, 116V (Par17 [3]; peptide 1 mM): 0,06817833 ppm | Combined chemical shift perturbation of full length Par17, 119F (Par17 [3]; peptide 1 mM): 0,02459781 ppm | Combined chemical shift perturbation of full length Par17, 115M (Par17 [3]; peptide 2 mM): 0,03362789 ppm | Combined chemical shift perturbation of full length Par17, 116V (Par17 [3]; peptide 2 mM): 0,13037308 ppm | Combined chemical shift perturbation of full length Par17, 119F (Par17 [3]; peptide 2 mM): 0,04192915 ppm | Combined chemical shift perturbation of full length Par17, 115M (Par17 [3]; peptide 3 mM): 0,04495973 ppm | Combined chemical shift perturbation of full length Par17, 116V (Par17 [3]; peptide 3 mM): 0,18551846 ppm | Combined chemical shift perturbation of full length Par17, 119F (Par17 [3]; peptide 3 mM): 0,05880948 ppm | Combined chemical shift perturbation of full length Par17, 115M (Par17 [3]; peptide 4 mM): 0,05828389 ppm | Combined chemical shift perturbation of full length Par17, 116V (Par17 [3]; peptide 4 mM): 0,23776807 ppm | Combined chemical shift perturbation of full length Par17, 119F (Par17 [3]; peptide 4 mM): 0,07526515 ppm | Combined chemical shift perturbation of full length Par17, 115M (Par17 [3]; peptide 5 mM): 0,06478417 ppm | Combined chemical shift perturbation of full length Par17, 119F (Par17 [3]; peptide 5 mM): 0,08126177 ppm

CC(C)[C@H](NC(=O)[C@H](C)NC(=O)CCC(=O)O)C(=O)N1CCC[C@H]1C(=O)N[C@@H](Cc1ccccc1)C(=O)Nc1ccc([N+](=O)[O-])cc1 [Val, Suc‐Ala‐Val‐Pro‐Phe‐pNa] (Suc-AVPF-pNA)
k = kobserved - kthermic, Par14 (Par17Δ1-25) (Par14 (Par17Δ1-25)): 0.408 ± 0.432 min⁻¹ | k = kobserved - kthermic, Par17 (Par17 [1]): 0.011 ± 0.005 min⁻¹ | k = kobserved - kthermic, PPIase domain (Par17Δ1-60) [2]: 0.289 ± 0.166 min⁻¹ | Combined chemical shift perturbation of full length Par17, 113G (Par17 [3]; peptide 0,35 mM): 0,024 ppm | Combined chemical shift perturbation of full length Par17, 115M (Par17 [3]; peptide 0,35 mM): 0,015 ppm | Combined chemical shift perturbation of full length Par17, 116V (Par17 [3]; peptide 0,35 mM): 0,049 ppm | Combined chemical shift perturbation of full length Par17, 119F (Par17 [3]; peptide 0,35 mM): 0,022 ppm | Combined chemical shift perturbation of full length Par17, 113G (Par17 [3]; peptide 3 mM): 0,157 ppm | Combined chemical shift perturbation of full length Par17, 115M (Par17 [3]; peptide 3 mM): 0,084 ppm | Combined chemical shift perturbation of full length Par17, 116V (Par17 [3]; peptide 3 mM): 0,326 ppm | Combined chemical shift perturbation of full length Par17, 119F (Par17 [3]; peptide 3 mM): 0,125 ppm | Combined chemical shift perturbation of full length Par17, 113G (Par17 [3]; peptide 5 mM): 0,221 ppm | Combined chemical shift perturbation of full length Par17, 115M (Par17 [3]; peptide 5 mM): 0,11 ppm | Combined chemical shift perturbation of full length Par17, 116V (Par17 [3]; peptide 5 mM): 0,454 ppm | Combined chemical shift perturbation of full length Par17, 119F (Par17 [3]; peptide 5 mM): 0,167 ppm | Combined chemical shift perturbation of full length Par17, 113G (Par17 [3]; peptide 1,5 mM): 0,099 ppm | Combined chemical shift perturbation of full length Par17, 115M (Par17 [3]; peptide 1,5 mM): 0,055 ppm | Combined chemical shift perturbation of full length Par17, 116V (Par17 [3]; peptide 1,5 mM): 0,201 ppm | Combined chemical shift perturbation of full length Par17, 119F (Par17 [3]; peptide 1,5 mM): 0,08 ppm

Suc–Ala–Glu–Ala–Phe–pNA [proline-free model peptide carrying alanine instead of proline]
binding to the N-terminal epitope of Par17 (Par17Δ61–156): interact with the N‐terminal epitope

From publication PMC12314576, “The Actin‐Binding Prolyl‐Isomerase Par17 Sustains Its Substrate Selectivity by Interdomain Allostery” (Proteins, 2025)
